Laboratory results from ChEMBL document CHEMBL2021896, “A novel pyrimidine derivatives with aryl urea, thiourea and sulfonamide moieties: synthesis, anti-inflammatory and antimicrobial evaluation” (2012).
Values after ≈ are worked out from the molar mass of the structure shown. Active and inactive are the calls of the source. The rule behind the calls is not given here.

Assays:
Staphylococcus aureus [1] = experiment: Antibacterial activity against Staphylococcus aureus by agar well diffusion method; format: functional
Escherichia coli [2] = experiment: Antibacterial activity against Escherichia coli by agar well diffusion method; format: functional
Candida albicans [3] = experiment: Antifungal activity against Candida albicans by agar well diffusion method; format: functional
THP-1 [4] = experiment: Antiinflammatory activity in human PMA-stimulated THP1 cells assessed as inhibition of LPS-induced IL-6 production at 10 uM treated 30 mins before LPS challenge measured after 24 hrs by ELISA; format: functional
Aspergillus niger [5] = experiment: Antifungal activity against Aspergillus niger by agar well diffusion method; format: functional
THP-1 [6] = experiment: Antiinflammatory activity in human PMA-stimulated THP1 cells assessed as inhibition of LPS-induced TNFalpha production at 10 uM treated 30 mins before LPS challenge measured after 24 hrs by ELISA; format: functional
Aspergillus flavus [7] = experiment: Antifungal activity against Aspergillus flavus by agar well diffusion method; format: functional
Salmonella typhimurium [8] = experiment: Antibacterial activity against Salmonella typhimurium by agar well diffusion method; format: functional, Salmonella enterica subsp. enterica serovar Typhimurium; conditions: Salmonella enterica
Fusarium solani [9] = experiment: Antifungal activity against Fusarium solani by agar well diffusion method; format: functional
Bacillus subtilis [10] = experiment: Antibacterial activity against Bacillus subtilis up to 200 ug/ml by agar well diffusion method; format: functional, organism-based
Fusarium solani [11] = experiment: Antifungal activity against Fusarium solani up to 200 ug/ml by agar well diffusion method; format: functional, organism-based
Aspergillus flavus [12] = experiment: Antifungal activity against Aspergillus flavus up to 200 ug/ml by agar well diffusion method; format: functional, organism-based
Candida albicans [13] = experiment: Antifungal activity against Candida albicans up to 200 ug/ml by agar well diffusion method; format: functional, organism-based
Aspergillus niger [14] = experiment: Antifungal activity against Aspergillus niger up to 200 ug/ml by agar well diffusion method; format: functional, organism-based
Escherichia coli [15] = experiment: Antibacterial activity against Escherichia coli up to 200 ug/ml by agar well diffusion method; format: functional, organism-based
Salmonella typhimurium [16] = experiment: Antibacterial activity against Salmonella typhimurium up to 200 ug/ml by agar well diffusion method; format: functional, organism-based; conditions: Salmonella enterica subsp. enterica serovar Typhimurium
Bacillus subtilis [17] = experiment: Antibacterial activity against Bacillus subtilis by agar well diffusion method; format: functional
Staphylococcus aureus [18] = experiment: Antibacterial activity against Staphylococcus aureus up to 200 ug/ml by agar well diffusion method; format: functional, organism-based

Compound	MIC (Staphylococcus aureus [1]) [µg/mL]	MIC (Escherichia coli [2]) [µg/mL]	MIC (Candida albicans [3]) [µg/mL]	MIC (Aspergillus niger [5]) [µg/mL]	MIC (Aspergillus flavus [7]) [µg/mL]	MIC (Salmonella typhimurium [8]) [µg/mL]	MIC (Fusarium solani [9]) [µg/mL]	MIC (Bacillus subtilis [17]) [µg/mL]	inhibition at 10 µM (THP-1 [4]) [%]	inhibition at 10 µM (THP-1 [6]) [%]	Activity (Bacillus subtilis [10])	Activity (Fusarium solani [11])	Activity (Aspergillus flavus [12])	Activity (Candida albicans [13])	Activity (Aspergillus niger [14])	Activity (Escherichia coli [15])	Activity (Salmonella typhimurium [16])	Activity (Staphylococcus aureus [18])
N#Cc1cccc(NC(=S)Nc2ccc(-c3cc(Nc4cccc(C(F)(F)F)c4)ncn3)cc2)c1	90 (≈ 183 µM)	90 (≈ 183 µM)	20 (≈ 40.8 µM)	40 (≈ 81.5 µM)	20 (≈ 40.8 µM)	90 (≈ 183 µM)	20 (≈ 40.8 µM)	–	16	11	inactive	–	–	–	–	–	–	–
O=S(=O)(Nc1ccc(-c2cc(Nc3cccc(C(F)(F)F)c3)ncn2)cc1)c1ccc(Br)cc1	80 (≈ 146 µM)	–	80 (≈ 146 µM)	95 (≈ 173 µM)	95 (≈ 173 µM)	–	–	–	11	6	inactive	–	–	–	–	inactive	inactive	–
Fc1ccccc1NC(=S)Nc1ccc(-c2cc(Nc3cccc(C(F)(F)F)c3)ncn2)cc1	90 (≈ 186 µM)	90 (≈ 186 µM)	90 (≈ 186 µM)	–	90 (≈ 186 µM)	–	90 (≈ 186 µM)	90 (≈ 186 µM)	62	50	–	–	–	–	inactive	–	inactive	–
N#Cc1ccc(NC(=O)Nc2ccc(-c3cc(Nc4cccc(C(F)(F)F)c4)ncn3)cc2)cc1	–	–	80 (≈ 169 µM)	90 (≈ 190 µM)	80 (≈ 169 µM)	–	75 (≈ 158 µM)	–	80	61	inactive	–	–	–	–	inactive	inactive	inactive
CC1(C)OB(c2ccc([N+](=O)[O-])cc2)OC1(C)C	–	–	90 (≈ 361 µM)	–	–	–	–	–	0	0	inactive	inactive	inactive	–	inactive	inactive	inactive	inactive
FC(F)(F)c1cccc(Nc2cc(-c3ccc(NC(=S)Nc4ccccc4C(F)(F)F)cc3)ncn2)c1	–	–	15 (≈ 28.1 µM)	25 (≈ 46.9 µM)	15 (≈ 28.1 µM)	–	15 (≈ 28.1 µM)	–	82	68	inactive	–	–	–	–	inactive	inactive	inactive
COc1ccc(OC)c(S(=O)(=O)Nc2ccc(-c3cc(Nc4cccc(C(F)(F)F)c4)ncn3)cc2)c1	45 (≈ 84.8 µM)	25 (≈ 47.1 µM)	25 (≈ 47.1 µM)	15 (≈ 28.3 µM)	40 (≈ 75.4 µM)	35 (≈ 66 µM)	15 (≈ 28.3 µM)	30 (≈ 56.5 µM)	26	8	–	–	–	–	–	–	–	–

Further lines, with some results ahead:

MIC (Staphylococcus aureus [1]) [µg/mL]	MIC (Escherichia coli [2]) [µg/mL]	MIC (Candida albicans [3]) [µg/mL]	MIC (Aspergillus niger [5]) [µg/mL]	MIC (Aspergillus flavus [7]) [µg/mL]	MIC (Salmonella typhimurium [8]) [µg/mL]	MIC (Fusarium solani [9]) [µg/mL]	MIC (Bacillus subtilis [17]) [µg/mL]	Compound	inhibition at 10 µM (THP-1 [4]) [%]	inhibition at 10 µM (THP-1 [6]) [%]	Activity (Bacillus subtilis [10])	Activity (Fusarium solani [11])	Activity (Aspergillus flavus [12])	Activity (Candida albicans [13])	Activity (Aspergillus niger [14])	Activity (Escherichia coli [15])	Activity (Salmonella typhimurium [16])	Activity (Staphylococcus aureus [18])
90 (≈ 186 µM)	90 (≈ 186 µM)	–	–	–	90 (≈ 186 µM)	–	–	Cc1cccc(S(=O)(=O)Nc2ccc(-c3cc(Nc4cccc(C(F)(F)F)c4)ncn3)cc2)c1	25	14	inactive	inactive	inactive	inactive	inactive	–	–	–
15 (≈ 27.1 µM)	15 (≈ 27.1 µM)	–	–	–	10 (≈ 18 µM)	–	20 (≈ 36.1 µM)	O=S(=O)(Nc1ccc(-c2cc(Nc3cccc(C(F)(F)F)c3)ncn2)cc1)c1ccc(OC(F)(F)F)cc1	8	0	–	inactive	inactive	inactive	inactive	–	–	–
90 (≈ 179 µM)	–	90 (≈ 179 µM)	–	–	–	–	–	O=C(Nc1ccc(-c2cc(Nc3cccc(C(F)(F)F)c3)ncn2)cc1)Nc1cccc(Cl)c1F	96	78	inactive	inactive	inactive	–	inactive	inactive	inactive	–
35 (≈ 73 µM)	30 (≈ 62.6 µM)	55 (≈ 115 µM)	35 (≈ 73 µM)	20 (≈ 41.7 µM)	30 (≈ 62.6 µM)	20 (≈ 41.7 µM)	30 (≈ 62.6 µM)	COc1cccc(NC(=O)Nc2ccc(-c3cc(Nc4cccc(C(F)(F)F)c4)ncn3)cc2)c1	18	11	–	–	–	–	–	–	–	–
25 (≈ 50.9 µM)	20 (≈ 40.7 µM)	–	–	–	40 (≈ 81.4 µM)	–	40 (≈ 81.4 µM)	CC(C)c1ccc(NC(=O)Nc2ccc(-c3cc(Nc4cccc(C(F)(F)F)c4)ncn3)cc2)cc1	90	71	–	inactive	inactive	inactive	inactive	–	–	–
90 (≈ 188 µM)	–	40 (≈ 83.8 µM)	75 (≈ 157 µM)	30 (≈ 62.8 µM)	–	60 (≈ 126 µM)	90 (≈ 188 µM)	Cc1ccc(NC(=O)Nc2ccc(-c3cc(Nc4cccc(C(F)(F)F)c4)ncn3)cc2)cc1C	27	16	–	–	–	–	–	inactive	inactive	–
